Measured values as given in patent publication US12098148B2, “Therapeutic compounds” (C4X Discovery Limited, priority 2018, dated 2024).

Legend:
[1] = target: human KEAP1 (N-term, residues 321-609) (Homo sapiens, UniProt Q14145); test: biochemical;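 note: fluorescence polarization competition assay of Kelch domain binding to NRF2, 12-point 1:3 dilution series from 10 µM, read after 1 h at room temperature, floor 10 nM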
Method: Biological Assays KEAP1 Kelch Fluorescence Polarization (FP) Assay Method
Inhibition of the Kelch domain-NRF2 interaction was determined using a fluorescence polarization-based competition assay in a black 384-well microplate. Compounds were tested at a starting concentration of 10 μM serially diluted 1:3 to generate a 12-point dose response curve on the Biomek FX robot.
After 1 h at room temperature, fluorescence polarization (excitation 470 nm/emission 530 nm) was measured using an Envision plate reader. IC50 values were determined by fitting the data to a four parameter logistic fit using XLfit or XE Runner within ActivityBase.

[2] = tested on: NQO1 mRNA in BEAS-2B cells; test: Beas2B NQO1 mRNA cell based assay; set-up: species or system human; details: Homo sapiens, BEAS-2B, 24 h, 24 h compound treatment, increase in NQO1 mRNA vs vehicle (0.1% DMSO), read-out: EC50
In short: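 BEAS-2B human bronchial epithelial cells exposed to compound for 24 h at 37 °C, 5% CO2. NQO1 mRNA measured by one-step TaqMan RT-qPCR on unpurified lysates, normalized to β-actin; relative expression by ΔΔCT method.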

human KEAP1 (N-term, residues 321-609), sequence (Q14145 321-609): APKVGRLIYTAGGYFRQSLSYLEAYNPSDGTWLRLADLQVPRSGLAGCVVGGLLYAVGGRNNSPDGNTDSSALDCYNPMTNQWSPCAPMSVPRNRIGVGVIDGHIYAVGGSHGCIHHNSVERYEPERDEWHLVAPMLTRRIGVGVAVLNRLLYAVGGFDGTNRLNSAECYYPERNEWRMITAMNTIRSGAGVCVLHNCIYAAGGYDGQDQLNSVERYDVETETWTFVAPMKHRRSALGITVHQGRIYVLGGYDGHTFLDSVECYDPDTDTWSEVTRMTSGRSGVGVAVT

| Compound | IC50 [1] [nM] | EC50 [2] [nM] |
| --- | --- | --- |
| C[C@H]1CC(=O)N(C[C@@H]2c3c(OCc4nnn(C)c4C(F)F)ccc(Cl)c3CCN2C(=O)[C@@H]2CCC[C@]2(C)C(=O)O)C1 [Example 116, (1S,2R)-2-((S)-5-chloro-8-((5-(difluoromethyl)-1-methyl-1H-1,2,3-triazol-4-yl)methoxy)-1-(((S)-4-methyl-2-oxopyrrolidin-1-yl)methyl)-1,2,3,4-tetrahydroisoquinoline-2-carbonyl)-1-methylcyclopentane-1-carboxylic acid] | 73 | 1900 |
| CC[C@]1(C(=O)O)CCCC[C@H]1C(=O)N1CCc2c(Cl)ccc(OCc3nnn(C)c3C(F)F)c2[C@H]1CN1CCCC1=O [Example 117, (1S,2R)-2-((S)-5-chloro-8-((5-(difluoromethyl)-1-methyl-1H-1,2,3-triazol-4-yl)methoxy)-1-((2-oxopyrrolidin-1-yl)methyl)-1,2,3,4-tetrahydroisoquinoline-2-carbonyl)-1-ethylcyclohexane-1-carboxylic acid] | 8.2 | 37 |
| CC[C@]1(C(=O)O)CCC[C@H]1C(=O)N1CCc2c(Cl)ccc(OCc3nnn(C)c3C(F)F)c2[C@H]1CN1CCCC1=O [Example 118, (1S,2R)-2-((S)-5-chloro-8-((5-(difluoromethyl)-1-methyl-1H-1,2,3-triazol-4-yl)methoxy)-1-((2-oxopyrrolidin-1-yl)methyl)-1,2,3,4-tetrahydroisoquinoline-2-carbonyl)-1-ethylcyclopentane-1-carboxylic acid] | 8.4 | 59 |
| CCn1nnc(COc2ccc(Cl)c3c2[C@@H](CN2CCCC2=O)N(C(=O)[C@@H]2CCC[C@]2(C)C(=O)O)CC3)c1C(F)F [Example 119, (1S,2R)-2-((S)-5-chloro-8-((5-(difluoromethyl)-1-ethyl-1H-1,2,3-triazol-4-yl)methoxy)-1-((2-oxopyrrolidin-1-yl)methyl)-1,2,3,4-tetrahydroisoquinoline-2-carbonyl)-1-methylcyclopentane-1-carboxylic acid] | 8.1 | 18 |
| CCn1nnc(COc2ccc(Cl)c3c2[C@@H](CN2CCCC2=O)N(C(=O)[C@@H]2CCCC[C@]2(C)C(=O)O)CC3)c1C(F)F [Example 120, (1S,2R)-2-((S)-5-chloro-8-((5-(difluoromethyl)-1-ethyl-1H-1,2,3-triazol-4-yl)methoxy)-1-((2-oxopyrrolidin-1-yl)methyl)-1,2,3,4-tetrahydroisoquinoline-2-carbonyl)-1-methylcyclohexane-1-carboxylic acid] | 6.2 | 1.2 |
| CC(C)n1nnc(COc2ccc(Cl)c3c2[C@@H](CN2CCCC2=O)N(C(=O)[C@@H]2CCCC[C@]2(C)C(=O)O)CC3)c1C(F)F [Example 121, (1S,2R)-2-((S)-5-chloro-8-((5-(difluoromethyl)-1-isopropyl-1H-1,2,3-triazol-4-yl)methoxy)-1-((2-oxopyrrolidin-1-yl)methyl)-1,2,3,4-tetrahydroisoquinoline-2-carbonyl)-1-methylcyclohexane-1-carboxylic acid] | 6.3 | 11 |
| CC(C)n1nnc(COc2ccc(Cl)c3c2[C@@H](CN2CCCC2=O)N(C(=O)[C@@H]2CCC[C@]2(C)C(=O)O)CC3)c1C(F)F [Example 122, (1S,2R)-2-((S)-5-chloro-8-((5-(difluoromethyl)-1-isopropyl-1H-1,2,3-triazol-4-yl)methoxy)-1-((2-oxopyrrolidin-1-yl)methyl)-1,2,3,4-tetrahydroisoquinoline-2-carbonyl)-1-methylcyclopentane-1-carboxylic acid] | 9.7 | 86 |
| Cn1nnc(COc2ccc(Cl)c3c2[C@@H](CN2CC4(CC4)CC2=O)N(C(=O)[C@@H]2CCCC[C@]2(C)C(=O)O)CC3)c1C(F)F [Example 123, (1S,2R)-2-((S)-5-chloro-8-((5-(difluoromethyl)-1-methyl-1H-1,2,3-triazol-4-yl)methoxy)-1-((6-oxo-5-azaspiro[2.4]heptan-5-yl)methyl)-1,2,3,4-tetrahydroisoquinoline-2-carbonyl)-1-methylcyclohexane-1-carboxylic acid] | 5.8 | 0.26 |
| Cc1onc(COc2ccc(Cl)c3c2[C@@H](CN2CCCC2=O)N(C(=O)[C@@H]2CCCC[C@]2(C)C(=O)O)CC3)c1C [Example 124, (1S,2R)-2-((S)-5-chloro-8-((4,5-dimethylisoxazol-3-yl)methoxy)-1-((2-oxopyrrolidin-1-yl)methyl)-1,2,3,4-tetrahydroisoquinoline-2-carbonyl)-1-methylcyclohexane-1-carboxylic acid] | 8.4 | 6.8 |
| Cc1onc(COc2ccc(Cl)c3c2[C@@H](CN2CCCC2=O)N(C(=O)[C@@H]2CCCC[C@]2(C)C(=O)O)CC3)c1Cl [Example 125, (1S,2R)-2-((S)-5-chloro-8-((4-chloro-5-methylisoxazol-3-yl)methoxy)-1-((2-oxopyrrolidin-1-yl)methyl)-1,2,3,4-tetrahydroisoquinoline-2-carbonyl)-1-methylcyclohexane-1-carboxylic acid] | 9.2 | 30 |
| Cc1cnoc1COc1ccc(Cl)c2c1[C@@H](CN1CCCC1=O)N(C(=O)[C@@H]1CCCC[C@]1(C)C(=O)O)CC2 [Example 126, (1S,2R)-2-((S)-5-chloro-8-((4-methylisoxazol-5-yl)methoxy)-1-((2-oxopyrrolidin-1-yl)methyl)-1,2,3,4-tetrahydroisoquinoline-2-carbonyl)-1-methylcyclohexane-1-carboxylic acid] | 5.6 | 32 |
| COCc1c(COc2ccc(Cl)c3c2[C@@H](CN2CCCC2=O)N(C(=O)[C@@H]2CCCC[C@]2(C)C(=O)O)CC3)nnn1C [Example 127, (1S,2R)-2-((S)-5-chloro-8-((5-(methoxymethyl)-1-methyl-1H-1,2,3-triazol-4-yl)methoxy)-1-((2-oxopyrrolidin-1-yl)methyl)-1,2,3,4-tetrahydroisoquinoline-2-carbonyl)-1-methylcyclohexane-1-carboxylic acid] | 7 | 2.6 |
| COCCc1c(COc2ccc(Cl)c3c2[C@@H](CN2CCCC2=O)N(C(=O)[C@@H]2CCCC[C@]2(C)C(=O)O)CC3)nnn1C [Example 128, (1S,2R)-2-((i)-5-chloro-8-((5-(2-methoxyethyl)-1-methyl-1H-1,2,3-triazol-4-yl)methoxy)-1-((2-oxopyrrolidin-1-yl)methyl)-1,2,3,4-tetrahydroisoquinoline-2-carbonyl)-1-methylcyclohexane-1-carboxylic acid] | 8.7 | 1.9 |
| Cn1nnc(COc2ccc(Cl)c3c2[C@@H](CN2CCCC2=O)N(C(=O)[C@@H]2CCCC[C@]2(C)C(=O)O)CC3)c1C1CC1 [Example 129, (1S,2R)-2-((S)-5-chloro-8-((5-cyclopropyl-1-methyl-1H-1,2,3-triazol-4-yl)methoxy)-1-((2-oxopyrrolidin-1-yl)methyl)-1,2,3,4-tetrahydroisoquinoline-2-carbonyl)-1-methylcyclohexane-1-carboxylic acid] | 5.5 | 0.95 |
| C[C@H]1CCN(C[C@@H]2c3c(OCc4nnn(C)c4C(F)(F)F)ccc(Cl)c3CCN2C(=O)[C@@H]2CCCC[C@]2(C)C(=O)O)C1=O [Example 130, (1S,2R)-2-((S)-5-chloro-1-(((S)-3-methyl-2-oxopyrrolidin-1-yl)methyl)-8-((1-methyl-5-(trifluoromethyl)-1H-1,2,3-triazol-4-yl)methoxy)-1,2,3,4-tetrahydroisoquinoline-2-carbonyl)-1-methylcyclohexane-1-carboxylic acid] | 6.7 | 21 |
| C[C@@H]1CCN(C[C@@H]2c3c(OCc4nnn(C)c4C(F)(F)F)ccc(Cl)c3CCN2C(=O)[C@@H]2CCCC[C@]2(C)C(=O)O)C1=O [Example 131, (1S,2R)-2-((S)-5-chloro-1-(((R)-3-methyl-2-oxopyrrolidin-1-yl)methyl)-8-((1-methyl-5-(trifluoromethyl)-1H-1,2,3-triazol-4-yl)methoxy)-1,2,3,4-tetrahydroisoquinoline-2-carbonyl)-1-methylcyclohexane-1-carboxylic acid] | 12 | 200 |
| C[C@@H]1CC(=O)N(C[C@@H]2c3c(OCc4nnn(C)c4C(F)(F)F)ccc(Cl)c3CCN2C(=O)[C@@H]2CCCC[C@]2(C)C(=O)O)C1 [Example 132, (1S,2R)-2-((S)-5-chloro-1-(((R)-4-methyl-2-oxopyrrolidin-1-yl)methyl)-8-((1-methyl-5-(trifluoromethyl)-1H-1,2,3-triazol-4-yl)methoxy)-1,2,3,4-tetrahydroisoquinoline-2-carbonyl)-1-methylcyclohexane-1-carboxylic acid] | 5.1 | 5.7 |
| C[C@]1(C(=O)O)CCCC[C@H]1C(=O)N1CCc2c(Cl)ccc(OCc3nnn(C4CC4)c3C(F)F)c2[C@H]1CN1CCCC1=O [Example 134, (1S,2R)-2-((S)-5-chloro-8-((1-cyclopropyl-5-(difluoromethyl)-1H-1,2,3-triazol-4-yl)methoxy)-1-((2-oxopyrrolidin-1-yl)methyl)-1,2,3,4-tetrahydroisoquinoline-2-carbonyl)-1-methylcyclohexane-1-carboxylic acid] | 8.2 | 2.2 |
| C[C@]1(C(=O)O)CCCC[C@H]1C(=O)N1CCc2c(Cl)ccc(OCc3cncnc3C(F)F)c2[C@H]1CN1CC2(CC2)CC1=O [Example 135, (1S,2R)-2-((S)-5-chloro-8-((4-(difluoromethyl)pyrimidin-5-yl)methoxy)-1-((6-oxo-5-azaspiro[2.4]heptan-5-yl)methyl)-1,2,3,4-tetrahydroisoquinoline-2-carbonyl)-1-methylcyclohexane-1-carboxylic acid] | 5.3 | 0.91 |
